Measurements reported in patent US20200207734A1, “HETEROCYCLIC COMPOUND AND USE THEREOF” (Takeda Pharmaceutical Company Limited, priority 2017, published 2020).

Molecular target: T1, human orexin type 2 receptor (Homo sapiens, UniProt O43614)
T1 construct: human orexin type 2 receptor cDNA was inserted into pcDNA3.1(+) plasmid vector (Invitrogen); expressed in transfected cells
T1 sequence (O43614 1-444): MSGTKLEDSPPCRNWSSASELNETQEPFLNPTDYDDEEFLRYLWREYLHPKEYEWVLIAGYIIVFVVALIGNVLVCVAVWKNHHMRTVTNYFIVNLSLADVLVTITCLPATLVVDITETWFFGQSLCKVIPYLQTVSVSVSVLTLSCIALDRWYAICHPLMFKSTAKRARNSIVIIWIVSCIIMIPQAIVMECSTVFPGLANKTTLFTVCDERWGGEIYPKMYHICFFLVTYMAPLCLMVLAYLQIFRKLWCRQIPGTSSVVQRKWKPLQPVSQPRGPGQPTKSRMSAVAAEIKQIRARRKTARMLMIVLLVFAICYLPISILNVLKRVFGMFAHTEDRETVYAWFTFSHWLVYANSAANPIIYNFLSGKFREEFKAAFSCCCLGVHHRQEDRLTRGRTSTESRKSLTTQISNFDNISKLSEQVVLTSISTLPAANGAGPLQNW
Experiment: Measurement of orexin type 2 receptor agonist activity (calcium fluorescence, CHO cells expressing hOX2R)
Format: cell-based
Settings: test compound 3 μM; CHO cells expressing human OX2 receptor; DMSO = 0%, orexin A (human) = 100%
Excerpt: To obtain a cell clone stably expressing human orexin type 2 receptor, human orexin type 2 receptor cDNA was inserted into pcDNA3.1(+) plasmid vector (Invitrogen), and a plasmid DNA for expression of human orexin type 2 receptor (pcDNA3.1(+)/hOX2R) was cloned. The plasmid DNA was introduced into CHO-dhfr cell by an electroporation method, and human orexin type 2 receptor expressing clone cells were obtained by limiting dilution method by using G418 drug resistance as a selection marker.
CHO cells forcibly expressing human OX2 receptor were seeded in each well of 384 well black transparent bottom plate (BD Falcon) at 7,500 cells/well, and cultured for one day in a 5% CO2 incubator at 37° C. After removal of the medium in the cell plate, assay buffer A containing a calcium indicator (HBSS (Thermo Fisher Scientific), 20 mM HEPES (Thermo Fisher Scientific), 0.1% BSA (Wako Pure Chemical Industries, Ltd. or Sigma-Aldrich), 2.5 μg/mL Fluo-4 AM (DOJINDO Chemical), 0.08% Pluronic F127 (DOJINDO Chemical), 1.25 mM probenecid (DOJINDO Chemical)) was added at 30 μL/well. The plate was stood for 30 min in a 5% CO2 incubator at 37° C., and further stood at room temperature for 30 min. A test compound prepared by diluting with assay buffer B (HBSS, 20 mM HEPES, 0.1% BSA) was added at 10 μL/well, and the fluorescence value was measured by FDSSμCELL (Hamamatsu Photonics K.K.) every one sec for 1 min, and thereafter every two sec for 1 min 40 sec. The activity (%) of the test compound was calculated assuming that variation in the fluorescence value when DMSO was added instead of the test compound was 0%, and variation in the fluorescence value when orexin A (human) (PEPTIDE INSTITUTE, INC.) was added at the final concentration of 10 nM was 100%.

In order of falling “OX2R agonist activity (3 μM, %)” value:
1. CC(C)OC(=O)N1CC[C@H](NS(C)(=O)=O)[C@@H]1Cc1cccc(-c2ccccc2)c1 (relative stereo) [Example 74, isopropyl cis-2-(biphenyl-3-ylmethyl)-3-((methylsulfonyl)amino)pyrrolidine-1-carboxylate]  104%
2. CCNC(=O)N1CCC[C@H](NS(C)(=O)=O)[C@@H]1Cc1cccc(-c2ccccc2)c1 (relative stereo) [Example 3, cis-2-(biphenyl-3-ylmethyl)-N-ethyl-3-((methylsulfonyl)amino)piperidine-1-carboxamide]  101%
3. CCOC(=O)N1CCC[C@H](NS(C)(=O)=O)[C@@H]1Cc1cccc(-c2ccccc2)c1 (relative stereo) [Example 29, ethyl cis-2-(biphenyl-3-ylmethyl)-3-((methylsulfonyl)amino)piperidine-1-carboxylate]  98%
4. CC(C)OC(=O)N1CCC[C@H](NS(C)(=O)=O)[C@@H]1Cc1cccc(-c2ccccc2)c1 (relative stereo) [Example 50, isopropyl cis-2-(biphenyl-3-ylmethyl)-3-((methylsulfonyl)amino)piperidine-1-carboxylate]  97%
5. CC(C)OC(=O)N1CCC[C@H](NS(C)(=O)=O)[C@@H]1Cc1cccc(-c2ccccc2)n1 (relative stereo) [Example 64, isopropyl cis-3-((methylsulfonyl)amino)-2-((6-phenylpyridin-2-yl)methyl)piperidine-1-carboxylate]  96%
6. CCNC(=O)N1CCC[C@H](NS(C)(=O)=O)[C@@H]1Cc1ccccc1Oc1ccccc1 (relative stereo) [Example 62, cis-N-ethyl-3-((methylsulfonyl)amino)-2-(2-phenoxybenzyl)piperidine-1-carboxamide]  93%
7. CCNC(=O)N1CCC[C@H](NS(C)(=O)=O)[C@@H]1Cc1cccc(Oc2ccccc2)c1 (relative stereo) [Example 10, cis-N-ethyl-3-((methylsulfonyl)amino)-2-(3-phenoxybenzyl)piperidine-1-carboxamide]  91%
8. CCNC(=O)N1CCC[C@H](NS(C)(=O)=O)[C@@H]1Cc1cccc(Cc2cccc(C)c2)c1 (relative stereo) [Example 2, cis-N-ethyl-2-(3-(3-methylbenzyl)benzyl)-3-((methylsulfonyl)amino)piperidine-1-carboxamide]  90%
9. C=C(C)c1cccc(C[C@H]2[C@@H](NS(C)(=O)=O)CCCN2C(=O)OC)c1 (relative stereo) [Example 55, methyl cis-3-((methylsulfonyl)amino)-2-(3-(prop-1-en-2-yl)benzyl)piperidlne-1-carboxylate]  84%
10. COC(=O)N1CCC[C@H](NS(C)(=O)=O)[C@@H]1Cc1cccc(-c2cccc(F)c2)c1 (relative stereo) [Example 14, methyl cis-2-((3′-fluorobiphenyl-3-yl)methyl)-3-((methylsulfonyl)amino)piperidine-1-carboxylate]  82%
11. CCNC(=O)N1CCC[C@H](NS(C)(=O)=O)[C@@H]1Cc1cccc(Cc2ccccc2)c1 (relative stereo) [Example 1, cis-2-(3-benzylbenzyl)-N-ethyl-3-((methylsulfonyl)amino)piperidine-1-carboxamide]  81%
12. COC(=O)N1CCC[C@H](NS(C)(=O)=O)[C@@H]1Cc1cccc(-c2ccccc2)c1 (relative stereo) [Example 11, methyl cis-2-(biphenyl-3-ylmethyl)-3-((methylsulfonyl)amino)piperidine-1-carboxylate]  80%
13. CCOC(=O)N1CCC[C@H](NS(C)(=O)=O)[C@@H]1Cc1cccc(-c2ccccc2)n1 (relative stereo) [Example 38, ethyl cis-3-((methylsulfonyl)amino)-2-((6-phenylpyridin-2-yl)methyl)piperidine-1-carboxylate]  75%
14. COC(=O)N1CC[C@H](NS(C)(=O)=O)[C@@H]1Cc1cccc(-c2ccccc2)c1 (relative stereo) [Example 61, methyl cis-2-(biphenyl-3-ylmethyl)-3-((methylsulfonyl)amino)pyrrolidine-1-carboxylate]  74%
15. COC(=O)N1CCC[C@H](NS(C)(=O)=O)[C@@H]1Cc1cccc(-c2ccc3c(cnn3C)c2)c1 (relative stereo) [Example 53, methyl cis-2-(3-(1-methyl-1H-indazol-5-yl)benzyl)-3-((methylsulfonyl)amino)piperidine-1-carboxylate]  72%
16. COC(=O)N1CCC[C@H](NS(C)(=O)=O)[C@@H]1Cc1ccc(F)c(-c2ccccc2)c1 (relative stereo) [Example 41, methyl cis-2-((6-fluorobiphenyl-3-yl)methyl)-3-((methylsulfonyl)amino)piperidine-1-carboxylate]  67%
17. COC(=O)N1CCC[C@H](NS(C)(=O)=O)[C@@H]1Cc1cccc(N2CCCC2)c1 (relative stereo) [Example 27, methyl cis-3-((methylsulfonyl)amino)-2-(3-(pyrrolidin-1-yl)benzyl)piperidine-1-carboxylate]  66%
18. CCNC(=O)N1CCC[C@H](NS(C)(=O)=O)[C@@H]1Cc1cccc(OC2CCCCC2)c1 (relative stereo) [Example 7, cis-2-(3-(cyclohexyloxy)benzyl)-N-ethyl-3-((methylsulfonyl)amino)piperidine-1-carboxamide]  62%
19. CC(=O)N1CCC[C@H](NS(C)(=O)=O)[C@@H]1Cc1cccc(-c2ccccc2)c1 (relative stereo) [Example 22, N-(cis-1-acetyl-2-(biphenyl-3-ylmethyl)piperidin-3-yl)methanesulfonamide]  60%
20. CCNC(=O)N1CCC[C@H](NS(C)(=O)=O)[C@@H]1Cc1cccc(-c2ccc(C(F)(F)F)cc2)c1 (relative stereo) [Example 35, cis-N-ethyl-3-((methylsulfonyl)amino)-2-((4′-(trifluoromethyl)biphenyl-3-yl)methyl)piperidine-1-carboxamide]  41%
21. CCNC(=O)N1CCC[C@H](NS(C)(=O)=O)[C@@H]1Cc1cccc(O[Si](C(C)C)(C(C)C)C(C)C)c1 (relative stereo) [Example 17, cis-N-ethyl-3-((methylsulfonyl)amino)-2-(3-((triisopropylsilyl)oxy)benzyl)piperidine-1-carboxamide]  29%
22. COC(=O)N1CCC[C@H](NS(C)(=O)=O)[C@@H]1Cc1cccc(C2CCC2)c1 (relative stereo) [Example 60, methyl cis-2-(3-cyclobutylbenzyl)-3-((methylsulfonyl)amino)piperidine-1-carboxylate]  26%
23. CCNC(=O)N1CCC[C@H](NS(C)(=O)=O)[C@@H]1Cc1ccc(Oc2ccccc2)cc1 (relative stereo) [Example 63, cis-N-ethyl-3-((methylsulfonyl)amino)-2-(4-phenoxybenzyl)piperidine-1-carboxamide]  24%
